Reference: ChEMBL document CHEMBL4834473, “Novel hydroxybenzylamine-deoxyvasicinone hybrids as anticholinesterase therapeutics for Alzheimer's disease” (Bioorg Med Chem, 2021)
Activity calls are given as the source filed them. The rule behind the calls is not given here.

Columns and labels:
[1] = biological target: Amyloid-beta precursor protein (Homo sapiens, UniProt P05067); assay: Inhibition of human amyloid beta (1 to 42) self-induced aggregation measured after 48 hrs by ThT flourescence assay
Amyloid-beta precursor protein, sequence (P05067 whole entry): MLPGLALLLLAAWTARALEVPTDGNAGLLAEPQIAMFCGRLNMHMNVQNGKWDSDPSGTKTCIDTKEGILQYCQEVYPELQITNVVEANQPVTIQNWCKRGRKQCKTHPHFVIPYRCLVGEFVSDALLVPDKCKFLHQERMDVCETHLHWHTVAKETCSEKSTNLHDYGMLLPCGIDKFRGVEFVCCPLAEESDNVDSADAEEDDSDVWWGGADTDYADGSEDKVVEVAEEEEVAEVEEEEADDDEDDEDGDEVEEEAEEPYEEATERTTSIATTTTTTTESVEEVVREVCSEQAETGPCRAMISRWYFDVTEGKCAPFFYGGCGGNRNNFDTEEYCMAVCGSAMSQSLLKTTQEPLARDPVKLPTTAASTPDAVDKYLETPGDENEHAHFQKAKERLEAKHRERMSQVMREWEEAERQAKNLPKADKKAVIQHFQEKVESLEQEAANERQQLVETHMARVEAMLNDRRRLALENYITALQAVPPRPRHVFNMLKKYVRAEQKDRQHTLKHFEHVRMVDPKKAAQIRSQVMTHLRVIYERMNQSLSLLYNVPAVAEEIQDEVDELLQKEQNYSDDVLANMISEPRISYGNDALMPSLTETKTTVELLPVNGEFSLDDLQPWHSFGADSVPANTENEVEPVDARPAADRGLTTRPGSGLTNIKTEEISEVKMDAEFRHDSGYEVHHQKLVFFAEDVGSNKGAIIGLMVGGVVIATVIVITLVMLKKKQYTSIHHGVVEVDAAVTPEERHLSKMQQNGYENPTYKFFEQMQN

[2] = Selectivity index, ratio of IC50 for equine serum BChE to IC50 for electric eel AChE
[3] = biological target: Acetylcholinesterase (Electrophorus electricus, UniProt O42275); assay: Inhibition of Electric eel AChE using acetylthiocholine iodide as substrate preincubated for 10 mins followed by addition of substrate and measured after 15 mins by Ellman's method
Acetylcholinesterase, sequence (O42275 whole entry): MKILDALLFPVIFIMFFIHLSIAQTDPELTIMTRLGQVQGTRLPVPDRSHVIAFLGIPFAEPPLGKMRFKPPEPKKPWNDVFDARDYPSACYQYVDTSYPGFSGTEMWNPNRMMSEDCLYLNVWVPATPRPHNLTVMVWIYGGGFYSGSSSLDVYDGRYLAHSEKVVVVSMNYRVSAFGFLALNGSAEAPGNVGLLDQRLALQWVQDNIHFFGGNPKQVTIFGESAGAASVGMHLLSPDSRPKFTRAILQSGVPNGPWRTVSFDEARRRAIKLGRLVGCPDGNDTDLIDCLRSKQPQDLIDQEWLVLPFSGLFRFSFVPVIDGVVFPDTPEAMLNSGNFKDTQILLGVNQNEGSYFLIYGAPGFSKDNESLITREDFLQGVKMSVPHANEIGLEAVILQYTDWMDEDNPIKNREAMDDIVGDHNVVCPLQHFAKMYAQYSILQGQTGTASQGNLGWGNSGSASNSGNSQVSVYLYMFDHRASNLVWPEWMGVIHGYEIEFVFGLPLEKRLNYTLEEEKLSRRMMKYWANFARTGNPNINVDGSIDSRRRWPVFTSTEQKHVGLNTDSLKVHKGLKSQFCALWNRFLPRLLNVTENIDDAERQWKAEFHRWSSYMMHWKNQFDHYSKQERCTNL

[4] = biological target: Cholinesterase (Equus caballus, UniProt P81908); assay: Inhibition of equine serum BChE using butyrylthiocholine iodide as substrate preincubated for 10 mins followed by addition of substrate and measured after 15 mins by Ellman's method; format: cell-free
Cholinesterase, sequence (P81908 whole entry): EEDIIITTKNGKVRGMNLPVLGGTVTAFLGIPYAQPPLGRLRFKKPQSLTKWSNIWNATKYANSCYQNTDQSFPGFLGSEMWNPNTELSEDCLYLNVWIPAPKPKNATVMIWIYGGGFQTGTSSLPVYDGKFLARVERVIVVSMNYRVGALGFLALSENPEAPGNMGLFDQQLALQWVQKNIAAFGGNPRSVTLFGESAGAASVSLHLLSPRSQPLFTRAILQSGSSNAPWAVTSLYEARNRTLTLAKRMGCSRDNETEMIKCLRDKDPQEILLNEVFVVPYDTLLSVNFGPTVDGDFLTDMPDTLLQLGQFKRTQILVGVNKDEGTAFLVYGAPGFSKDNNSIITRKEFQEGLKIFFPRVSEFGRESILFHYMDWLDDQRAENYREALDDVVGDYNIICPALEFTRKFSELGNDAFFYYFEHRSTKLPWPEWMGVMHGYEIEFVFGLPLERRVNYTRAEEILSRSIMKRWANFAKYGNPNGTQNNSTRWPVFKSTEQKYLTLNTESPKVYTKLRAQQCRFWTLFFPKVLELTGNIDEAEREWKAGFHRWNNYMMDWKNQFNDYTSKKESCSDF

[5] = biological target: Acetylcholinesterase (Homo sapiens) (UniProt P22303); assay: Inhibition of AChE (unknown origin)-induced amyloid beta (1 to 42) aggregation at 1 to 5 uM measured after 24 hrs by ThT flourescence assay; conditions: dose 1-5 µM
Acetylcholinesterase (Homo sapiens), sequence (P22303 whole entry): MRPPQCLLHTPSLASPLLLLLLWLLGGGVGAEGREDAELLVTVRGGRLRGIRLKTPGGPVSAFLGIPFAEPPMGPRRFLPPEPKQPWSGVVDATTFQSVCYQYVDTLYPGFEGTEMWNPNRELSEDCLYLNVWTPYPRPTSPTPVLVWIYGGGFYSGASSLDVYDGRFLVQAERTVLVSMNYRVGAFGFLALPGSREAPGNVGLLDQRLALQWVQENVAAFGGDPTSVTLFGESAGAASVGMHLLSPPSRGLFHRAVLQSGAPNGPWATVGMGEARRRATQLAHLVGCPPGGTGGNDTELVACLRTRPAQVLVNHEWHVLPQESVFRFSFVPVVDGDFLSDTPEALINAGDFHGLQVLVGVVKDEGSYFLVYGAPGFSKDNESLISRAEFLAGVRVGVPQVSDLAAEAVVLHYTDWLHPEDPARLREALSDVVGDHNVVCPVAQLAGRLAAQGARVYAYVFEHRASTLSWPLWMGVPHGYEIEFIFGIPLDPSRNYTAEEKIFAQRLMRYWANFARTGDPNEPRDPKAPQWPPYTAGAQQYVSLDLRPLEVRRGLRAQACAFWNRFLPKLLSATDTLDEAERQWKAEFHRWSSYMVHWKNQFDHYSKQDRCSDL

[6] = biological target: Acetylcholinesterase (Electrophorus electricus) (UniProt O42275); assay: Non-competitive/mixed inhibition of electric eel AChE using varying concentrations of acetylthiocholine iodide as substrate at 0.16 to 0.64 uM measured every 2 mins for 10 mins by Lineweaver-Burk plot analysis; conditions: dose 0.16-0.64 µM
Acetylcholinesterase (Electrophorus electricus), sequence (O42275 24-633 limits assumed): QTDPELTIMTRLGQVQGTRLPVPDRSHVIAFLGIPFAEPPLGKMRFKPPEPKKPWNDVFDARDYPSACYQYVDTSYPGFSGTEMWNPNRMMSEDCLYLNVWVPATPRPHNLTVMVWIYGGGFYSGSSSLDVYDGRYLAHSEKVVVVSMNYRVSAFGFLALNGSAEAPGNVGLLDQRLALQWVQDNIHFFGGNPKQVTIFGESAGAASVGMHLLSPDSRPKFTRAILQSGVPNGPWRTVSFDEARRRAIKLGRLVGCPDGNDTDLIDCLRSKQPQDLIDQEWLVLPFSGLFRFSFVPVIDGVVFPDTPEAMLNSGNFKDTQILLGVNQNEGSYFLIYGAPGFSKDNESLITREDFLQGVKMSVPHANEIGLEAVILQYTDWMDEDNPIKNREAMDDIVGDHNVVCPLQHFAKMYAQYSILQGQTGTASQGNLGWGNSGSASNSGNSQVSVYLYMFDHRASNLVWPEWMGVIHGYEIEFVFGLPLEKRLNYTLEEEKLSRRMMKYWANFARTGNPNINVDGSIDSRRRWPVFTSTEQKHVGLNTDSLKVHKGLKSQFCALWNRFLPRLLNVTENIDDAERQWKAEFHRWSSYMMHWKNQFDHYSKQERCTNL

SMILES | IC50 [1] [µM] | Ratio IC50 [2] | IC50 [3] [µM] | IC50 [4] [µM] | inhibition [5] [%] | inhibition [6]
O=c1c2cc(NCc3cc(F)ccc3O)ccc2nc2n1CCC2 | 6.3 | 7.91 | 2.51 | 19.9 |  | 
Cc1cc2nc3n(c(=O)c2cc1NCc1cccc(Br)c1O)CCC3 | 9.27 | 3.4 | 6.35 | 21.6 |  | 
COc1ccc(CNc2ccc3nc4n(c(=O)c3c2)CCC4)c(O)c1 | 3.91 | 40.5 | 0.38 | 15.4 | 68.7 | 
COc1ccc(CNc2cc3c(=O)n4c(nc3cc2C)CCC4)c(O)c1 | 3.22 | 42.9 | 0.34 | 14.6 | 72.6 | Active
Cc1cc2nc3n(c(=O)c2cc1NCc1cc(Br)ccc1O)CCC3 | 7.37 | 3.95 | 5.27 | 20.8 |  | 
Cc1cc2nc3n(c(=O)c2cc1NCc1ccc(Cl)cc1O)CCC3 | 6.1 | 6.68 | 3.07 | 20.5 |  | 
COc1cccc(CNc2cc3c(=O)n4c(nc3cc2C)CCC4)c1O | 4.26 | 19.5 | 0.83 | 16.2 | 55 | 
COc1cccc(CNc2ccc3nc4n(c(=O)c3c2)CCC4)c1O | 4.2 | 17.8 | 0.9 | 16.1 | 55.1 | 
O=c1c2cc(NCc3cc(Br)ccc3O)ccc2nc2n1CCC2 | 7.63 | 3.9 | 5.51 | 21.5 |  | 
O=c1c2cc(NCc3ccccc3O)ccc2nc2n1CCC2 | 4.69 | 11.9 | 1.53 | 18.2 | 49 | 
O=c1c2cc(NCc3ccc(Cl)cc3O)ccc2nc2n1CCC2 | 7.02 | 4.52 | 4.78 | 21.7 |  | 
O=c1c2cc(NCc3cccc(Br)c3O)ccc2nc2n1CCC2 | 8.34 | 3.6 | 5.8 | 20.9 |  | 
Cc1cc2nc3n(c(=O)c2cc1NCc1ccccc1O)CCC3 | 5.09 | 11.7 | 1.58 | 18.5 | 40.2 | 
O=c1c2ccccc2nc2n1CCC2 [DEOXYVASICINONE] |  |  | 24 | 25 | 3.83 | 
Oc1c(I)cc(Cl)c2cccnc12 [CLIOQUINOL] | 9.8 |  |  |  | 11.5 | 
Cc1cc2nc3n(c(=O)c2cc1NCc1cc(F)ccc1O)CCC3 | 6.33 | 7.56 | 2.7 | 20.4 |  | 
